{"source": "patent US7744867B2", "about": "“PTPase inhibitors and method of using same” (The Cleveland Clinic Foundation, priority 2001, dated 2010)", "key": {"[1]": {"settings": "cited from earlier work"}, "[2]": {"tested_on": "Stat1 tyrosine phosphorylation", "test": "IFNα-induced Stat1 tyrosine phosphorylation in cancer cell lines", "assay_type": "cell-based, human", "description": "Induction of Stat1 tyrosine phosphorylation by IFNα and/or sodium stibogluconate. For induction of Stat1 tyrosine phosphorylation by IFNα in the absence or presence of sodium stibogluconate, cells grown in 10% FCS RPMI 1640 medium at 37° C. were stimulated with IFNα (50 u/ml) for various time points and treated with or without sodium stibogluconate for 5 minutes prior to termination by lysing the cells in cold lysis buffer (1% NP-40; 50 mM Tris, pH 7.4; 100 mM NaCl; 1 mM EDTA, 10% glycerol, 10 mM sodium molybdic acid and 4 mM AEBSF).\nCell lysate preparation, SDS-PAGE, and Western blotting. Cell lysates were prepared by lysing cells in cold lysis buffer for 30 min and cleared by centrifuging at 14,000 rpm at 4° C. for 15 min. For SDS-PAGE, cell lysates were mixed with equal volume of 2×SDS-PAGE sample buffer, heated at 90° C. for 5 min and separated in 10% SDS-PAGE gels. Cellular proteins in SDS-PAGE gels were transferred to nitrocellulose membrane (Schleicher & Schuell), blocked in 5% milk, probed with antibodies and detected by using an enhanced chemiluminescence kit (ECL, Amersham)."}, "[3]": {"molecular_target": "T1, GST/SHP-1 fusion protein (Mus musculus, UniProt P29351)", "T1 construct": "made in house", "T1 sequence (P29351 whole entry, the tested form may be a part)": "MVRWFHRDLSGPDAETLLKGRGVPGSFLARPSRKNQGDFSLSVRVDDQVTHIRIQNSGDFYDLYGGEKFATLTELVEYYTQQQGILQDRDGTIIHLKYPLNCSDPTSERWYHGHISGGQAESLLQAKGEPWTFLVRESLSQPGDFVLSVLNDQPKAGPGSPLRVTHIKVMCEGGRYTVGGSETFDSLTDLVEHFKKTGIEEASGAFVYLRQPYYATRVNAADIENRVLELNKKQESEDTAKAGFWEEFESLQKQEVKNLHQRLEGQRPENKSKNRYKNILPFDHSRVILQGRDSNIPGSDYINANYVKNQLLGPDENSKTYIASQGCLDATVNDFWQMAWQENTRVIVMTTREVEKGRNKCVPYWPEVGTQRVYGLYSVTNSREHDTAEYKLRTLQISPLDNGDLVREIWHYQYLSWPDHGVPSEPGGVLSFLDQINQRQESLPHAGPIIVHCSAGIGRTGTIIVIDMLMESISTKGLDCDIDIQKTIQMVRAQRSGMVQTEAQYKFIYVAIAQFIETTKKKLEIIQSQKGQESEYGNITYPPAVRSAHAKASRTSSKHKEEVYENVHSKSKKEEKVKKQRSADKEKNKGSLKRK", "test": "In vitro PTPase assay, dephosphorylation of a synthetic phosphotyrosine peptide", "assay_type": "biochemical", "settings": "Sb concentration of 10 μg/ml", "description": "In vitro PTPase activities were measured using the commercial protein tyrosine phosphatase assay kit (UBI) following established procedure. This assay measures the in vitro dephosphorylation of a synthetic phosphotyrosine peptide (R-R-L-I-E-D-A-E-pY-A-A-R-G). Briefly, 0.01 μg of GST/PTPase fusion protein was incubated in 50 μl of Tris buffer (10 mM Tris, […]) at 22° C. for 10 minutes, followed by addition of 0.2 mM of the phosphotyrosine peptide and incubation at 22° C. for 18 hours. 100 μl of Malachite Green solution was added and incubated for 5 minutes, and the absorbance at 660 nm was measured after 5 minutes."}, "[4]": {"molecular_target": "T2, intracellular Flag-PRL-3 (Homo sapiens, UniProt O75365)", "T2 construct": "expressed in transfected cells; host or cells: NIH3T3", "T2 sequence (O75365 whole entry)": "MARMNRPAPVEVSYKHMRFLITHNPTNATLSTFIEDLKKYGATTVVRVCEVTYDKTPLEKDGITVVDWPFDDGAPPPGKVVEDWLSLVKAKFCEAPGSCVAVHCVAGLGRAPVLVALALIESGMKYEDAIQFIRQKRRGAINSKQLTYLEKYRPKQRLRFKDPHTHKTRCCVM", "test": "PTPase activity of anti-Flag immunocomplexes from NIH3T3 transfectants", "assay_type": "cell-based", "settings": "treated 5 min", "description": "(§1) An expression construct of Flag-tagged PRL-1 or control vector was transfected into NIH3T3 cells which were then treated without or with sodium stibogluconate and used for immunoprecipitation assays with a monoclonal anti-Flag antibody. The immunocomplexes were analyzed by SDS-PAGE/Western blotting and PTPase assays. A Flag-tagged protein with a molecular weight approximately 22 kDa as expected for Flag-PRL-1 was detected in the immunocomplexes from untreated or sodium stibogluconate -treated Flag-PRL-1 transfectants but not in those from the control cells (FIG. 6A).\n(§2) Glucatime inactivates intracellular PRL phosphatases. NIH3T3 stable transfectants of Flag-tagged PRL-1 (A), PRL-2 (B) and PRL-3 (C) were untreated or treated with glucatime for 5 minutes and then washed to remove cell free drug. The Flag-tagged PRLs were immunoprecipitated from the cells using a monoclonal anti-Flag antibody. The amounts of Flag-tagged PRLs in the immunocomplexes were quantified by SDS-PAGE/Western blotting with the anti-Flag antibody (the top panel). Activities of the immunocomplexes in dephosphorylating a synthetic phosphotyrosine peptide were determined by in vitro PTPase assays (the low panel)."}, "[5]": {"molecular_target": "T3, intracellular Flag-PRL-1 (Homo sapiens, UniProt Q93096)", "T3 construct": "expressed in transfected cells; host or cells: NIH3T3", "T3 sequence (Q93096 whole entry)": "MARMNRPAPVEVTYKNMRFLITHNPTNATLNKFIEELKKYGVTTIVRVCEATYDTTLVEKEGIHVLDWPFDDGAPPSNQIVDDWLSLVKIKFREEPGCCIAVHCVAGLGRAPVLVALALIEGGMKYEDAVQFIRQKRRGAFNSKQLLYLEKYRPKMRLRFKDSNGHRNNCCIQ", "test": "PTPase activity of anti-Flag immunocomplexes from NIH3T3 transfectants", "assay_type": "cell-based", "settings": "treated 5 min", "description": "as §1, §2"}, "[6]": {"tested_on": "Jak2 and Stat5 tyrosine phosphorylation", "test": "IL-3-induced Jak2/Stat5 tyrosine phosphorylation in Baf3 cells", "assay_type": "cell-based, murine", "description": "For induction of cellular protein phosphorylation by sodium stibogluconate or pervanadate, Baf3 cells were incubated in 0.1% FCS RPMI 1640 medium at 37° C. for 16 hours. The cells were then washed twice in RPMI 1640 medium and incubated with sodium stibogluconate or pervanandate (0.1 mM) for various times prior to termination by lysing cells in cold lysis buffer (50 mM Tris, pH 7.4; 150 mM NaCl; 0.2 mM Na3VO4; 20 mm NaF; 1% NP40; 2 mM PMSF; 20 μg/ml of aprotinin and 1 mM of sodium molybdic acid). To determine the effect of sodium stibogluconate or potassium antimonyl tartrate on IL-3-induced Jak/Stat phosphorylation, Baf3 cells were deprived of the growth factor for 16 hours in 0.1% FCS RPMI 1640 medium and then incubated with or without sodium stibogluconate or potassium antimonyl tartrate for 10 minutes. IL-3 was next added to the cell suspension and incubated for various times. The cells were then harvested and lysed in cold lysis buffer at 4° C. for 45 minutes. Total cell lysates (TCL) were separated in SDS-PAGE gels, blotted onto nitrocellulose membrane (Schleicher & Schuell), probed with specific antibodies and detected using an enhanced chemiluminescence kit (ECL, Amersham).\nA functional role of SHP-1 in dephosphorylating the Jak family kinases during cytokine signaling has been documented. To determine whether sodium stibogluconate inhibits SHP-1 in vivo, the effect of the drug on IL-3-induced Jak2 tyrosine phosphorylation in Baf3 cells was examined. Baf3 cells deprived of IL-3 were incubated with or without the drug for 10 minutes and then stimulated with IL-3 for various times. IL-3 induced tyrosine phosphorylation of Jak2 and Stat5 in Baf3 cells in the presence or absence of the drug. However, the phosphotyrosine levels of Jak2 and Stat5 in the presence of the drug were about twice of those in cells without drug treatment as determined by densitometry analysis."}, "[7]": {"tested_on": "Peer cells (T-ALL)", "test": "Growth inhibition of human tumor cell lines", "assay_type": "cell-based", "settings": "SS 12.5 μg/ml, IFNα 1,000 u/ml, alone or combined"}, "[8]": {"tested_on": "U266 cells", "test": "Apoptotic cells by Annexin V/propidium iodide assay", "assay_type": "cell-based, human", "settings": "sodium stibogluconate 100 μg/ml, IFNα 1000 u/ml, 3 days, control 8%", "description": "Detection of apoptotic cells by Annexin V/propidium iodide assay. Annexin V staining of exposed membrane phospholipid phosphatidylserine (PS) was done using the Annexin V assay kit (Pharmingen, San Diego, Calif.). Briefly, U266 or WM9 cells were cultured in the 10% FCS RPMI 1640 medium in the absence or presence of sodium stibogluconate, IFNα, or both for 3 days. Cells were then washed in PBS twice and stained in binding buffer (10 mM Hepes, pH 7.4; 140 mM NaCl; 2.5 mM CaCl2) containing Annexin V-FITC and propidium iodide for 15 min. The reaction was stopped by adding 10 volumes of binding buffer and analyzed by FACS (Becton Dickinson Facsvantage) or fluorescent microscopy."}}, "data": [{"compound": "O.O.O.O.O.O.O.O.O.O=C([O-])[C@@H]1[O][Sb]2([O-])([O][Sb]34([OH])[O][C@H]([C@H](O)CO)[C@H]([O]3)[C@H](C(=O)[O-])[O]4)[O][C@H]([C@H](O)CO)[C@@H]1[O]2.[Na+].[Na+].[Na+]", "note": "[sodium stibogluconate]", "values": [{"measurement": "blood levels, of peak value", "setting": "[1]; in 16 hours", "value": "around 1%"}, {"measurement": "excreted (renal clearance)", "setting": "[1]; in the first 6 hours", "value": "more than 80%"}, {"measurement": "serum levels", "setting": "[1]; standard dosage 10-20 mg/kg/day", "value": "≥ 10000", "unit": "ng/mL"}, {"measurement": "IFNα-induced Stat1 tyrosine phosphorylation relative to control", "setting": "[2]; DR cells, 10 μg/ml, 30 min post-stimulation", "value": "approximately two"}, {"measurement": "Stat1 tyrosine phosphorylation by the drug itself", "setting": "[2]; DR cells, absence of IFNα", "value": "failed to induced"}, {"measurement": "IFNα-induced Stat1 tyrosine phosphorylation", "setting": "[2]; DU145 cells, 5 hours post-stimulation", "value": "Enhanced"}, {"measurement": "IFNα-induced Stat1 tyrosine phosphorylation", "setting": "[2]; WM9 cells, 5 hours post-stimulation", "value": "Enhanced"}, {"measurement": "IFNα-induced Stat1 tyrosine phosphorylation", "setting": "[2]; WM35 cells", "value": "failed to enhance"}, {"measurement": "IFNα-induced Stat1 tyrosine phosphorylation", "setting": "[2]; WiT49-N1 cells", "value": "failed to enhance"}, {"measurement": "effect on recombinant SHP-1", "setting": "[3]", "value": "inactivated"}, {"measurement": "PTPase activity of Flag-PRL-3 immunocomplexes from treated transfectants", "setting": "[4]", "value": "lack of PTPase activity"}, {"measurement": "PTPase activity of Flag-PRL-1 immunocomplexes from treated transfectants", "setting": "[5]", "value": "little PTPase activities"}, {"measurement": "phosphotyrosine levels of Jak2 and Stat5 relative to cells without drug treatment", "setting": "[6]; IL-3 stimulated, drug 10 minutes before, densitometry", "value": "about twice"}, {"measurement": "Jak2/Stat5 tyrosine phosphorylation by the drug alone", "setting": "[6]; without IL-3, 37° C. for 16 hours", "value": "failed to induce"}]}, {"compound": "IFNα", "values": [{"measurement": "% of growth inhibition by day 6 (±s.d.)", "setting": "[7]", "value": "86 (4) %"}, {"measurement": "percentage of apoptotic cells", "setting": "[8]", "value": 16, "unit": "%"}]}]}
